{"source": "patent US8835134B2", "about": "“Cycloastragenol monoglucoside, preparation, pharmaceutical composition and application thereof” (Tianjin Institute of Pharmaceutical Research, priority 2007, dated 2014)", "experiment": "Oral absorption"}
{"smiles": "CC(C)(O)[C@@H]1CC[C@](C)([C@H]2[C@@H](O)C[C@@]3(C)C4C[C@H](OC5OC(CO)C(O)C(O)C5O)C5C(C)(C)[C@@H](O)CC[C@@]56C[C@@]46CC[C@]23C)O1", "note": "(stereo partly drawn) [CMG, Cycloastragenol-6-O-β-D-glucoside]", "values": [{"measurement": "oral absorption", "result": "good oral absorption properties"}]}
